From patent US20220380371A1, “MLL1 INHIBITORS AND ANTI-CANCER AGENTS” (NOVARTIS AG, priority 2019, published 2022) come the findings set out here.

In experiment [1] the target is wild type MLL1 four-member complex (MLL1-4C) (Homo sapiens, UniProt Q03164). Briefly: MLL1 LC-MS Assay. It counts as biochemical. The following applies: read-out: LCMS. On the procedure: The compounds of the present disclosure were serially and separately diluted 3-fold in DMSO to obtain a total of eight or twelve concentrations. Then the test compounds at each concentration (120 nL of each) were transferred by Mosquito into white Proxiplate plus 384-well microplate (PerkinElmer). Solutions (6 μL) of 60 nM wild type MLL1 four-member complex (MLL1-4C) and 5 μM SAM in the reaction buffer (20 mM Tris-HCl, pH 8.0, 0.01% Tween 20, 1 mM DTT, 10 mM MgCl2, 0.01% BSA) were added to the wells that were then incubated with the test compound for 20 min. A 6 μL solution of 20 μM of the peptide substrate H3K4me0 (histone H3[1-21]-Biotin) in the reaction buffer was added to initiate each reaction. The final components in the reaction solution include 30 nM MLL1-4C, 2.5 μM SAM, and 10 μM H3K4me0 with varying concentration of the compounds. A positive control consisted of 30 nM MLL1-4C, 2.5 μM SAM, and 10 μM substrate in the absence of the test compound, and a negative control consisted of 2.5 μM SAM, and 10 μM substrate only. Each reaction was incubated at rt for 120 min, then stopped by addition of 3 μL per of quench solution (2.5% TFA with 320 nM d4-SAH). The reaction mixture was centrifuged (Eppendorf centrifuge 5810, Rotor A-4-62) for 2 min at 2000 rpm. The SAH production from the enzymatic assays were monitored by LC-MS/MS on an API 4000 triple quadrupole mass spec with Turbolon Spray (Applied Biosystem) coupled with Prominenece UFLC (Shimazu). The level of SAH production were then normalized based on the values coming from the positive and negative controls to give percent enzyme activities. The data were then fit to a dose response equation using the program Helios (Novartis) to get the IC50 values of the test compounds.

A further experiment concerns H3K4me3 in MV4-11 cells. Briefly: MV4-11 H3K4me3 Cellular ELISA Assay. It counts as cell-based. The following applies: Homo sapiens, MV4-11, 48 h. On the procedure: MV4-11 H3K4me3 Cellular ELISA Assay
MV4-11 (ATCC® CRL-9591™) was cultured with RPMI1640 medium (Thermo Fisher Scientific, cat #11875) supplemented with 10% FBS (Thermo Fisher Scientific, cat #10099141) and 50 U/ml Penicillin-Streptomycin (Thermo Fisher Scientific, cat #10378016) in humidified incubator at 37° C., 5% CO2.
200 nL compounds dissolved in DMSO were serially diluted at 1:3 ratio for 12 points starting from 10 mM and dispensed into each wells of cell culture plates (PDL-coated ViewPlate-384 Black, FTC, PerkinElmer, #6007710). 3,750 MV4-11 cells in 40 μL culture medium were seeded into each well and treated with desired concentration for 48 hours. After treatment, wash cells with cold phosphate based buffer (PBS, pH 7.4) and aspirate the remaining PBS buffer. Crude histone lysate was extracted by 40 μL 0.5M HCl for 1 hour in 4° C. following neutralization by adding 32 μL neutralization buffer (0.5M Sodium phosphate dibasic, pH ˜12.5, 1.25 mM Dithiothreitol, Promega #V3151, Protease Inhibitor Cocktail, Sigma #8340) for each well. 5 μL and 20 μL of histone lysate was loaded to ELISA plate (384 Well Plates, PE HB, White, 6005620) for detection of total H3 and H3K4me3, respectively. Shake the plates gently in 4° C. for overnight. After histone binding, plates were washed with 80 μL PBS/T (PBS with 0.05% Tween-20) and blocked with 50 μL 3% BSA diluted in PBS/T per well for 1 hour. Incubate wells with primary antibody for 1 hour at room temperature using anti-H3K4me3 (CST #9727) and anti-total H3 (CST #9715) diluted 1:2000 in 3% BSA. Plates were then washed with PBS/T for 3 times and incubated with horseradish peroxidase (HRP) conjugated secondary antibody (CST #7074, 1:5000) for 1 hour at room temperature. The abundance of H3K4me3 and total H3 were measured by ECL substrates chemiluminescence (Pierce, #34080) on a plate reader (PerkinElmer EnVison 2104 Mutilable Reader). Percentage inhibition was calculated against DMSO control after normalization of H3K4me3 signal to H3 signal for individual samples. The data were then fit to a dose response curve using GraphPad Prism for IC50 calculation.

For another experiment, the system named is MV4-11 cells. Briefly: MV4-11 6-Day Cell Growth CTG (CellTiter-Glo) Assay. It counts as cell-based. The settings on record: Homo sapiens, MV4-11, 144 h, MV4-11 cell growth CellTiter-Glo, 6 days. The protocol: MV4-11 6-Day Cell Growth CTG (CellTiter-Glo) Assay
Acute myeloid leukemia cell MV4-11 (ATCC® CRL-9591™) was cultured with RPMI 1640 medium (Thermo Fisher Scientific, cat #11875) supplemented with 10% FBS (Thermo Fisher Scientific, cat #10099141) in humidified incubator at 37° C., 5% CO2. To assess the effect of MLL1 inhibition on cell growth, the compound of the present invention was dissolved in DMSO and serially diluted at 1:3 for 12 points starting from 10 mM then 200 nL for the replicate of each dose per well was dispensed to Viewplate-384 Black (Perkin Elmer). Exponentially growing MV4-11 cells were seeded at the density of 300 cells per well in 40 μL to the plate, so the final compound working concentration starts from 50 μM. After 6 days, 40 μL CellTiter-Glo (Promega, cat #G7573) was added into the cell culture well and luminescence was read with Envision (Perkin Elmer) to determine the viable cells. The percentage inhibition was calculated against the samples treated with DMSO only and the data were used for dose response curve fitting in GraphPad Prism to get the IC50 of representative compound of present invention, which reflects the inhibition of MLL1 activity.
(Cellular ATP, detected with luciferase, serves as a proxy for viable cell number.)

Structures are written as SMILES.

As for `C=Cc1cc(Cl)cc(N2CC[C@](N)(c3nc[nH]n3)C2)c1Cn1cnc2c(N)ncnc21` [Example 24], the IC50 in experiment [1] was under 50 nM; in the experiment with H3K4me3 in MV4-11 cells, under 1900 nM; in the experiment on MV4-11 cells, under 2000 nM.

In the case of `CCc1cc(Cl)cc(N2CC[C@](N)(c3nc[nH]n3)C2)c1Cn1cnc2c(N)ncnc21` [Example 25], the results for the IC50 (in experiment [1]; in the experiment with H3K4me3 in MV4-11 cells; with MV4-11 cells) were under 50 nM, under 1900 nM and under 2000 nM, respectively.

On to `Nc1ncnc2c1ncn2Cc1c(N2CC[C@](N)(c3ccccc3)C2)ccc(F)c1C(F)(F)F` [Example 26], for which the IC50 fell in the range of 50 to 100 nM in experiment [1], 1900 to 3000 nM in the experiment with H3K4me3 in MV4-11 cells and 2000 to 3000 nM with MV4-11 cells.

Take `COC(=O)[C@@]1(N)CCN(c2cc(Cl)cc(C3CCC3)c2Cn2cnc3c(N)ncnc32)C1` [Example 29]: the IC50 in experiment [1] is under 50 nM; in the experiment with H3K4me3 in MV4-11 cells, under 1900 nM; in the experiment with MV4-11 cells, under 2000 nM.

In the case of `Nc1ncnc2c1ncn2Cc1c([C@@H](O)C(F)(F)F)cc(Cl)cc1N1CC[C@](N)(C(=O)NC2CC2)C1` [Example 33, (R)-3-amino-1-(2-((6-amino-9H-purin-9-yl)methyl)-5-chloro-3-((R)-2,2,2-trifluoro-1-hydroxyethyl)phenyl)-N-cyclopropylpyrrolidine-3-carboxamide], the values for the IC50 (in experiment [1]; with H3K4me3 in MV4-11 cells; in the experiment on MV4-11 cells) were 50 to 100 nM, 1900 to 3000 nM and over 3000 nM, respectively.

With `Nc1ncnc2c1ncn2Cc1c(N2CC[C@](N)(C(=O)NC3CC3)C2)ccc(C(F)(F)F)c1Br` [Example 41, (R)-3-amino-1-(2-((6-amino-9H-purin-9-yl)methyl)-3-bromo-4-(trifluoromethyl)phenyl)-N-cyclopropylpyrrolidine-3-carboxamide], the IC50 was under 50 nM in experiment [1], under 1900 nM with H3K4me3 in MV4-11 cells and under 2000 nM in the experiment on MV4-11 cells.

Take `Nc1ncnc2c1ncn2Cc1c(N2CC[C@](N)(C(=O)NC3CC3)C2)ccc(F)c1CN1CCCCC1` [Example 46]: the values for the IC50 (in experiment [1]; with H3K4me3 in MV4-11 cells; with MV4-11 cells) were 50 to 100 nM, under 1900 nM and under 2000 nM, respectively.

As to `CN(C)Cc1c(C(F)(F)F)ccc(N2CC[C@](N)(C(=O)NC3CC3)C2)c1Cn1cnc2c(N)ncnc21` [Example 47], the IC50 in experiment [1] is under 50 nM; in the experiment with H3K4me3 in MV4-11 cells it was under 1900 nM; in the experiment on MV4-11 cells, under 2000 nM.

As to `CN(Cc1c(F)ccc(N2CC[C@](N)(C(=O)NC3CC3)C2)c1Cn1cnc2c(N)ncnc21)C1CC1` [Example 48], the IC50 in experiment [1] is over 100 nM; with H3K4me3 in MV4-11 cells it was under 1900 nM; in the experiment with MV4-11 cells, 2000 to 3000 nM.

For `CN(C)Cc1c(F)ccc(N2CC[C@](N)(C(=O)N[C@H]3C[C@@H]3c3ccccc3)C2)c1Cn1cnc2c(N)ncnc21` [Example 49], the IC50 in experiment [1] was under 50 nM; in the experiment with H3K4me3 in MV4-11 cells, under 1900 nM; with MV4-11 cells, under 2000 nM.

As for `Nc1ncnc2c1ncn2Cc1c(N2CC[C@](N)(C(=O)NC3CC3)C2)ccc(F)c1CN1CC[C@@H](F)C1` [Example 50], the values for the IC50 (in experiment [1]; in the experiment with H3K4me3 in MV4-11 cells; in the experiment on MV4-11 cells) were under 50 nM, under 1900 nM and under 2000 nM, respectively.

As to `Nc1ncnc2c1ncn2Cc1c(N2CC[C@](N)(C(=O)NC3CC3)C2)ccc(F)c1CN1CC(F)C1` [Example 53], the IC50 in experiment [1] is 50 to 100 nM; in the experiment with H3K4me3 in MV4-11 cells it was under 1900 nM; in the experiment on MV4-11 cells, under 2000 nM.

On to `Nc1ncnc2c1ncn2Cc1c(N2CC[C@](N)(C(=O)NC3CC3)C2)ccc(F)c1CNC1CC1` [Example 54], for which the IC50 is over 100 nM in experiment [1], under 1900 nM in the experiment with H3K4me3 in MV4-11 cells and under 2000 nM in the experiment on MV4-11 cells.

In the case of `Nc1ncnc2c1ncn2Cc1c(N2CC[C@](N)(C(=O)NC3CC3)C2)ccc(F)c1CN1CCC(F)(F)CC1` [Example 55], the IC50 in experiment [1] was 50 to 100 nM; with H3K4me3 in MV4-11 cells, under 1900 nM; with MV4-11 cells, under 2000 nM.

Consider `Nc1ncnc2c1ncn2Cc1c(N2CC[C@](N)(C(=O)NC3CC3)C2)ccc(F)c1CN1CCC(F)CC1` [Example 56], for which the IC50 in experiment [1] is 50 to 100 nM; with H3K4me3 in MV4-11 cells it was under 1900 nM; in the experiment with MV4-11 cells, under 2000 nM.

For the molecule `Nc1ncnc2c1ncn2Cc1c(N2CC[C@](N)(C(=O)NC3CC3)C2)ccc(F)c1CNCC(F)(F)F` [Example 57], the IC50 in experiment [1] was 50 to 100 nM; with H3K4me3 in MV4-11 cells it was under 1900 nM; in the experiment with MV4-11 cells, under 2000 nM.
